The source of these data is patent publication US20080269251A1, “Substituted Pyrazinone Derivatives as Alpha2C-Adrenoreceptor Antagonists” (priority 2005, published 2008).

For experiment [1], the target named is T1, human adrenergic-α2A receptor (Homo sapiens, UniProt P08913).
T1 construct: expressed in transfected cells; host or cells: CHO cells, stably transfected; membrane preparation
T1 sequence (P08913 1-465): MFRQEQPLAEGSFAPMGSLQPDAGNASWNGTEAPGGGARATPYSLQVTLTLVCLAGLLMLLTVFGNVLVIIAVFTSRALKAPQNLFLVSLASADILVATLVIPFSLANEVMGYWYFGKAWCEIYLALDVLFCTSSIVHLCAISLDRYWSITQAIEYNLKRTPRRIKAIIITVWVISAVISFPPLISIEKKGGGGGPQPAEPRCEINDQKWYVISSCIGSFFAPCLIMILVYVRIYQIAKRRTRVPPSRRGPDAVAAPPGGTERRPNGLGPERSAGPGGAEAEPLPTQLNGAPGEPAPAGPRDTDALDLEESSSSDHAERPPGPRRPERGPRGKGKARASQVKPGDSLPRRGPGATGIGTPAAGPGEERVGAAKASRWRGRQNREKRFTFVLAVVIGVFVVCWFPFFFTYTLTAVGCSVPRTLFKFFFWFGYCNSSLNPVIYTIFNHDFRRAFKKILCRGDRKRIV
Nature of the experiment: Radioligand binding experiment for hα2A-adrenergic receptor ([3H]raulwolscine). The settings on record: [3H]raulwolscine 1 nM, 60 minutes at 25° C.; for IC50: read-out: h-α2A pIC50 (converted). The procedure:
(§1) The interaction of the compounds of Formula (I) with α2C-adrenoceptor receptors was assessed in in vitro radioligand binding experiments. In general, a low concentration of a radioligand with a high binding affinity for a particular receptor or transporter is incubated with a sample of a tissue preparation enriched in a particular receptor or transporter or with a preparation of cells expressing cloned human receptors in a buffered medium. During the incubation, the radioligand binds to the receptor or transporter. When equilibrium of binding is reached, the receptor bound radioactivity is separated from the non-bound radioactivity, and the receptor- or transporter-bound activity is counted. The interaction of the test compounds with the receptor is assessed in competition binding experiments. Various concentrations of the test compound are added to the incubation mixture containing the receptor- or transporter preparation and the radioligand. The test compound in proportion to its binding affinity and its concentration inhibits binding of the radioligand. The radioligand used for […] receptor binding was [^3H]-raulwolscine.
(§2) CHO cells, stabile transfected with human adrenergic-α2A, -α2B or α2C receptor cDNA, were cultured in Dulbecco's Modified Eagle's Medium (DMEM)/Nutrient mixture Ham's F12 (ratio 1:1)(Gibco, Gent-Belgium) supplemented with 10% heat inactivated fetal calf serum (Life Technologies, Merelbeke-Belgium) and antibiotics (100 IU/ml penicillin G, 100 μg/ml streptomycin sulphate, 110 μg/ml pyruvic acid and 100 μg/ml L-glutamine). One day before collection, cells were induced with 5 mM sodiumbutyrate. Upon 80-90% of confluence, cells were scraped in phosphate buffered saline without Ca^2+ and Mg^2+ and collected by centrifugation at 1500×g for 10 minutes. The cells were homogenised in Tris-HCl 50 mM using an Ultraturrax homogenizer and centrifuged for 10 minutes at 23,500×g. The pellet was washed once by resuspension and rehomogenization and the final pellet was resuspended in Tris-HCl, divided in 1 ml aliquots and stored at −70° C.
(§3) Membranes were thawed and re-homogenized in incubation buffer (glycylglycine 25 mM, pH 8.0). In a total volume of 500 μl, 2-10 μg protein was incubated with [^3H]raulwolscine (NET-722) (New England Nuclear, USA) (1 nM final concentration) with or without competitor for 60 minutes at 25° C. followed by rapid filtration over GF/B filter using a Filtermate196 harvester (Packard, Meriden, Conn.). Filters were rinsed extensively with ice-cold rinsing buffer (Tris-HCl 50 mM pH 7.4). Filter-bound radioactivity was determined by scintillation counting in a Topcount (Packard, Meriden, Conn.) and results were expressed as counts per minute (cpm). Non-specific binding was determined in the presence of 1 μM oxymetazoline for hα2A- and hα2B receptors and 1 μM spiroxatrine for hα2C receptors.
(§4) Data from assays in the presence of compound were calculated as a percentage of total binding measured in the absence of test compound. Inhibition curves, plotting percent of total binding versus the log value of the concentration of the test compound, were automatically generated, and sigmoidal inhibition curves were fitted using non-linear regression. The pIC50 values of test compounds were derived from individual curves.

Experiment [2] concerns the target T2, human adrenergic-α2C receptor (Homo sapiens, UniProt P18825).
T2 construct: expressed in transfected cells; host or cells: CHO cells, stably transfected; membrane preparation
T2 sequence (P18825 1-462): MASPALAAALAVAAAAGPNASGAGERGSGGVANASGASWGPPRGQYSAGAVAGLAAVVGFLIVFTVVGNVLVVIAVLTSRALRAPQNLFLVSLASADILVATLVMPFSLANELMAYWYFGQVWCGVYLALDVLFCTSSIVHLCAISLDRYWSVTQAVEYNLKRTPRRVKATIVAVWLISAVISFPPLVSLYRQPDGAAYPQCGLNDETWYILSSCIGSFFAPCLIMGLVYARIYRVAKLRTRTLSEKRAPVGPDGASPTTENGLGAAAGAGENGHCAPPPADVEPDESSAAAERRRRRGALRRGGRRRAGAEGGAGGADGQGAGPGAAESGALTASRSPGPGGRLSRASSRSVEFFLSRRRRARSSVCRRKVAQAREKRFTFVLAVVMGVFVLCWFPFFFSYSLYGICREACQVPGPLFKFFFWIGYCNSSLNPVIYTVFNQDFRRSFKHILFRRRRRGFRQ
In words: Radioligand binding experiment for hα2C-adrenoceptor ([3H]raulwolscine). The settings on record: [3H]raulwolscine 1 nM, 60 minutes at 25° C.; for IC50: read-out: h-α2C pIC50 (converted). The procedure:
as §1, §2, §3, §4

A further experiment addresses T3, 5HT-transporter (Homo sapiens, UniProt P31645).
T3 construct: Human platelet membranes (Oceanix Biosciences Corporation, Hanover, Md., USA) were thawed; tissue Oceanix Biosciences Corporation, Hanover, Md., USA; host or cells: human platelet membranes
Nature of the experiment: Binding experiment for the 5HT-transporter ([3H]paroxetine, human platelet membranes). The settings on record: [3H]paroxetine 0.5 nM, 60 min at 25° C.; for IC50: read-out: h-5HTT pIC50 (converted). The procedure:
as §1
Human platelet membranes (Oceanix Biosciences Corporation, Hanover, Md., USA) were thawed, diluted in buffer (Tris-HCl 50 mM, 120 mM NaCl and 5 mM KCl) and quickly (max 3 s) homogenised with an Ultraturrax homogenizer. […] Incubation was stopped by rapid filtration of the incubation mixture over GF/B filters, pre-wetted with 0.1% polyethyleneamine, using a Filtermate196 harvester (Packard, Meriden, Conn.). Filters were rinsed extensively with ice-cold buffer and radioactivity on the filters was counted in a Topcount liquid scintillation counter (Packard, Meriden, Conn.). Data were expressed as cpm. Imipramine (at 1 μM final concentration) was used to determine the non-specific binding.
as §4

T3 sequence (P31645 whole entry): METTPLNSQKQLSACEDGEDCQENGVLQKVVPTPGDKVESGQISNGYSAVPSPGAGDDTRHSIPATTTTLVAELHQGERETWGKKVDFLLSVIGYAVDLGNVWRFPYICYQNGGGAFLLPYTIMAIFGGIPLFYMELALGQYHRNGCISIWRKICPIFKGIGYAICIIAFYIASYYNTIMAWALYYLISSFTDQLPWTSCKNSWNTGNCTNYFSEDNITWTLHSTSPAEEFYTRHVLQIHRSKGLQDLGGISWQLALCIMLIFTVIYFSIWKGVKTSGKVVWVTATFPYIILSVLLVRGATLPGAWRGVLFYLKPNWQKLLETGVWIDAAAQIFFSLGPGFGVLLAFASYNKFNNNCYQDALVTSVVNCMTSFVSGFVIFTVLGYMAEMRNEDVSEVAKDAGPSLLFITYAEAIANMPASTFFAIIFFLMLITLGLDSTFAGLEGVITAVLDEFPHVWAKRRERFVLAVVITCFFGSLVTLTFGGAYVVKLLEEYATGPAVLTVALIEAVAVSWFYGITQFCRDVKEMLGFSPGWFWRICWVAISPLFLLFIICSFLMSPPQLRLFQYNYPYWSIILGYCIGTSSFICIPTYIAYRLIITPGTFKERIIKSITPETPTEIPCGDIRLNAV

For the molecule `COC(=O)CCNC(=O)NCc1ccc(-n2ccnc(NC3CCN(Cc4ccc5ccccc5c4)CC3)c2=O)cc1` [1-47], the “h-α2A pIC50” value in experiment [1] amounted to 6.3. Besides, the “h-α2C pIC50” value in experiment [2] was 7.5. On 5HT-transporter, the “h-5HTT pIC50” value was determined as 7.6.
With `O=C(NCc1ccccc1)NCc1ccc(-n2ccnc(NC3CCN(Cc4ccc5ccccc5c4)CC3)c2=O)cc1` [1-48], the figures for the IC50 (in experiment [1]; in experiment [2]; at 5HT-transporter) were 316 nM, 39.8 nM and 10 nM, respectively.
On the same counts, the results for `Cc1ccc(CNC(=O)NCc2ccc(-n3ccnc(NC4CCN(Cc5ccc6ccccc6c5)CC4)c3=O)cc2)cc1F` [1-49] are 501 nM, 39.8 nM and 39.8 nM.
In the case of `O=C(NCc1ccc(-n2ccnc(NC3CCN(Cc4ccc5ccccc5c4)CC3)c2=O)cc1)NCc1cc(F)cc(C(F)(F)F)c1` [1-50], the IC50 in experiment [1] is 1260 nM; in experiment [2], 200 nM; at 5HT-transporter it was 63.1 nM.
`O=C(NCCCc1ccccc1)NCc1ccc(-n2ccnc(NC3CCN(Cc4ccc5ccccc5c4)CC3)c2=O)cc1` [1-51]: in experiment [1], the “h-α2A pIC50” value worked out at 6.4. Further, in experiment [2], the “h-α2C pIC50” value worked out at 7.1. In addition, the “h-5HTT pIC50” value on 5HT-transporter was determined as 7.8.
The like results for `O=C(NCc1ccc(-n2ccnc(NC3CCN(Cc4ccc5ccccc5c4)CC3)c2=O)cc1)Nc1ccccc1` [1-52] were, in that order, 6.3, 7.2 and 8.1.
With `O=C(NCCCn1ccnc(NC2CCN(Cc3ccc4ccccc4c3)CC2)c1=O)Nc1ccccc1` [1-53], the IC50 in experiment [1] was 631 nM; in experiment [2], 20 nM; on 5HT-transporter, 7.94 nM.
In the case of `O=C(NCc1ccc(-n2ccnc(NC3CCN(Cc4ccc5ccccc5c4)CC3)c2=O)cc1)Nc1cc(Cl)ccc1Cl` [1-54], in experiment [1], the “h-α2A pIC50” value was 6.0. Besides, the “h-α2C pIC50” value in experiment [2] came out at 6.7. At 5HT-transporter, the “h-5HTT pIC50” value was found to be 6.8.
In the case of `CCOC(=O)N1CCC(NC(=O)NCc2ccc(-n3ccnc(NC4CCN(Cc5ccc6ccccc6c5)CC4)c3=O)cc2)CC1` [1-55], the IC50 in experiment [1] was 631 nM; in experiment [2] it was 100 nM; at 5HT-transporter, 63.1 nM.
For `NC(=O)CCNCc1ccc(-n2ccnc(NC3CCN(Cc4ccc5ccccc5c4)CC3)c2=O)cc1` [1-56], the figures for the IC50 (in experiment [1]; in experiment [2]; on 5HT-transporter) were 251 nM, 25.1 nM and 15.8 nM, respectively.
In the case of `CN(CC(=O)N(C)C)Cc1ccc(-n2ccnc(NC3CCN(Cc4ccc5ccccc5c4)CC3)c2=O)cc1` [1-57], the IC50 in experiment [1] was 251 nM; in experiment [2] it was 15.8 nM; on 5HT-transporter it was 50.1 nM.
The like results for `CCN(CC)CCC(=O)NCc1ccc(-n2ccnc(NC3CCN(Cc4ccc5ccccc5c4)CC3)c2=O)cc1` [1-58] were, in that order, 79.4 nM, 7.94 nM and 6.31 nM.
The like results for `CN(C)C(=O)CCC(=O)NCc1ccc(-n2ccnc(NC3CCN(Cc4ccc5ccccc5c4)CC3)c2=O)cc1` [1-59] were, in that order, 316 nM, 39.8 nM and 31.6 nM.
As for `CC(=O)NCCN(C)Cc1ccc(-n2ccnc(NC3CCN(Cc4ccc5ccccc5c4)CC3)c2=O)cc1` [1-60], the IC50 in experiment [1] was 200 nM; in experiment [2], 25.1 nM; on 5HT-transporter, 10 nM.
On the same counts, the results for `CC(=O)NCCNCc1ccc(-n2ccnc(NC3CCN(Cc4ccc5ccccc5c4)CC3)c2=O)cc1` [1-61] are 200 nM, 12.6 nM and 10 nM.
For the molecule `CC(=O)NCCCC(=O)NCc1ccc(-n2ccnc(NC3CCN(Cc4ccc5ccccc5c4)CC3)c2=O)cc1` [1-62], the “h-α2A pIC50” value in experiment [1] stood at 6.4. In addition, the “h-α2C pIC50” value in experiment [2] came to 7.3. In addition, the “h-5HTT pIC50” value at 5HT-transporter is recorded as 7.5.
For `CN(C(=O)Cn1ccnc(NC2CCN(Cc3ccc4ccccc4c3)CC2)c1=O)c1ccccc1` [1-63], the figures for the IC50 (in experiment [1]; in experiment [2]; on 5HT-transporter) were 158 nM, 25.1 nM and 63.1 nM, respectively.
Turning to `O=C(Cn1ccnc(NC2CCN(Cc3ccc4ccccc4c3)CC2)c1=O)Nc1ccccc1` [1-64], the IC50 in experiment [1] was 158 nM; in experiment [2], 31.6 nM; at 5HT-transporter, 126 nM.
Consider `O=C(Cn1ccnc(NC2CCN(Cc3ccc4ccccc4c3)CC2)c1=O)Nc1ccc(F)cc1` [1-65], for which the IC50 was 158 nM in experiment [1], 39.8 nM in experiment [2] and 158 nM at 5HT-transporter.
Regarding `O=C(Cn1ccnc(NC2CCN(Cc3ccc4ccccc4c3)CC2)c1=O)NCc1ccc(F)cc1` [1-66], the IC50 in experiment [1] is 316 nM; in experiment [2], 12.6 nM; on 5HT-transporter, 63.1 nM.
On the same counts, the results for `O=c1c(NC2CCN(Cc3ccc4ccccc4c3)CC2)nccn1CCCNCc1ccccc1` [1-67] are 631 nM, 25.1 nM and 158 nM.
On to `O=C(Cn1ccnc(NC2CCN(Cc3ccc4ccccc4c3)CC2)c1=O)NCc1ccccc1` [1-68], for which the IC50 in experiment [1] is 200 nM; in experiment [2], 20 nM; at 5HT-transporter it was 158 nM.
For the molecule `CN(Cc1ccccc1)C(=O)Cn1ccnc(NC2CCN(Cc3ccc4ccccc4c3)CC2)c1=O` [1-69], the IC50 in experiment [1] is 200 nM; in experiment [2], 20 nM; on 5HT-transporter, 50.1 nM.
On to `CN(Cc1ccccc1)Cc1ccc(-n2ccnc(NC3CCN(Cc4ccc5ccccc5c4)CC3)c2=O)cc1` [1-70], for which the “h-α2A pIC50” value in experiment [1] amounted to 6.5. For the same molecule, the “h-α2C pIC50” value in experiment [2] is given as 7.5. The “h-5HTT pIC50” value at 5HT-transporter is 8.0.
Consider `O=C(Cn1ccnc(NC2CCN(Cc3ccc4ccccc4c3)CC2)c1=O)NCCc1ccccc1` [1-71], for which the results for the IC50 (in experiment [1]; in experiment [2]; at 5HT-transporter) were 316 nM, 20 nM and 126 nM, respectively.
Regarding `O=C(Cn1ccnc(NC2CCN(Cc3ccc4ccccc4c3)CC2)c1=O)NCCCc1ccccc1` [1-72], the IC50 in experiment [1] was 200 nM; in experiment [2] it was 31.6 nM; at 5HT-transporter, 63.1 nM.
